The nature of this data set: Dissolution and solvate precipitation of pyripyropene derivative I in propylene carbonate (Alkylene carbonate A). It counts as physicochemical.

The values that follow come from patent US9924712B2, “Liquid concentrate formulation containing a pyripyropene insecticide II” (BASF SE, priority 2012, dated 2018).

On to `C[C@]1(COC(=O)C2CC2)[C@@H]2C[C@H](O)[C@@]3(C)Oc4cc(-c5cccnc5)oc(=O)c4[C@H](O)[C@@H]3[C@@]2(C)CC[C@@H]1OC(=O)C1CC1` [pyripyropene derivative I], for which the “Appearance of solution on continued agitation” value (10 wt % and 20 wt % in propylene carbonate, after additional approximately 2 hours of agitation, precipitate crystalline by microscopy) was “started to turn cloudy”. Further, the “Time for complete dissolution” value (10 wt % and 20 wt % solutions in Alkylene carbonate A (propylene carbonate), with agitation, both cases) was “about 1 hour”.
